# From patent publication US9765037B2, “Compositions and methods for treating toxoplasmosis, cryptosporidiosis, and other apicomplexan protozoan related diseases” (University of Washington Through its Center for …, priority 2010, dated 2017)
# Read-outs that look alike come from different tables or passages of the source.
# What was measured:
# PfCDPK1 = PfCDPK1 (Plasmodium falciparum (isolate 3D7), UniProt P62344); test: biochemical; settings: for inhibition at 3 µM: read-out: PfCDPK1 (% inhibition @ 3 uM)
# TgCDPK1 = TgCDPK1 (Toxoplasma gondii, UniProt Q9BJF5); format: biochemical
# Chain of TgCDPK1 (Q9BJF5 1-507): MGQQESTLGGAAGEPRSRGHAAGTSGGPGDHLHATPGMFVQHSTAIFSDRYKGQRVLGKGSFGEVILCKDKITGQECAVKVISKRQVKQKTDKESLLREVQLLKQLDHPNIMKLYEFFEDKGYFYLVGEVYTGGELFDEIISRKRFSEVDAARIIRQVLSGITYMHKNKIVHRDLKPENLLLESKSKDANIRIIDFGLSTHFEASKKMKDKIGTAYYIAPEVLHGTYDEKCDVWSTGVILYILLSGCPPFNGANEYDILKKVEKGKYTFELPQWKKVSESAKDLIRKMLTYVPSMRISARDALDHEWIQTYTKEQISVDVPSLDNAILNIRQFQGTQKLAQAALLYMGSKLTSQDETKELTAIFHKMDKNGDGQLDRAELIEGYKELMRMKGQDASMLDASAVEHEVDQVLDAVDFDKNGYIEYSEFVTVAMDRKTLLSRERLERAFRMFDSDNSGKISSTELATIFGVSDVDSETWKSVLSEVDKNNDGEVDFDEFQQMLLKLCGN
# CpCDPK1 = CpCDPK1 (Cryptosporidium parvum (strain Iowa II), UniProt A3FQ16); test: biochemical; format: biochemical
# Chain of CpCDPK1 (A3FQ16 1-538): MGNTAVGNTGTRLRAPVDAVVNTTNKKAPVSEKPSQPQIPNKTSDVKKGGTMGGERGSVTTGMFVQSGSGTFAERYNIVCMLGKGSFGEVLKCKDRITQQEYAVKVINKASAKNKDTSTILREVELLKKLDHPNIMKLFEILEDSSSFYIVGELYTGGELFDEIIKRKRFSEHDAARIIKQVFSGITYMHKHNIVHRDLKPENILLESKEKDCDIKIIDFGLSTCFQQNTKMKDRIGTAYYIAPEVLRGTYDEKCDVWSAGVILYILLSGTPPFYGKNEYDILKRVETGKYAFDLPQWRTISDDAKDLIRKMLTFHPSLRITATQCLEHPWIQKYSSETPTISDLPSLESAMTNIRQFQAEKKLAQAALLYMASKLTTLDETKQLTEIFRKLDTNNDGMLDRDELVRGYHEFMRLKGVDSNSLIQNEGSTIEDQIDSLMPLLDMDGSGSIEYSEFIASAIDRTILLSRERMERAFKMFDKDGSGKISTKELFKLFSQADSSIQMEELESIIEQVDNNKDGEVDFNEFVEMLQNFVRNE
# PfCDPK4 = PfCDPK4 (Plasmodium falciparum (isolate 3D7), UniProt Q8IBS5); test: biochemical; settings: for inhibition at 3 µM: read-out: PfCDPK4 (% inhibition @ 3 uM)
# [1] = Solubility in buffers of various pH; format: physicochemical; settings: pH 6.5, aqueous buffer, read-out: Experimental Solubility pH 6.5
# [2] = system: human promyelocytic leukemia (HL-60); test: Growth inhibition of human cell line HL-60
# [3] = system: human lymphocyte (CRL8155); test: Growth inhibition of human cell line CRL8155
# [4] = Table 8, read-out: IC50 (μM) CpCDPK1
SMILES,IC50 (TgCDPK1; read-out: IC50 (μM) TgCDPK1),EC50 (PfCDPK1),IC50 (CpCDPK1; [4]),EC50 (PfCDPK4),solubility ([1]; buffer),other results
"CSc1cccc(-c2nn(C(C)C)c3ncnc(N)c23)c1 [Compound 7ab, 1-isopropyl-3-(3-(methylthio)phenyl)-1H-pyrazolo[3,4-d]pyrimidin-4-amine]",0.056 µM,–,–,–,–,inhibition at 3 µM (PfCDPK1): 85%; IC50 (CpCDPK1; read-out: IC50 (μM) CpCDPK1): 0.121 µM; inhibition at 3 µM (PfCDPK4): 79%
"COc1ccc(-c2nn(C(C)C)c3ncnc(N)c23)cc1OC [Compound 7k, 3-(3,4-dimethoxyphenyl)-1-isopropyl-1H-pyrazolo[3,4-d]pyrimidin-4-amine]",–,1.36 µM,0.173 µM,> 3 µM,–,IC50 (TgCDPK1; read-out: TgCDPK1 IC50): 0.037 µM; IC50 (CpCDPK1; read-out: CpCDPK1 IC50): 0.17 µM
"COc1cc(-c2nn(C(C)C)c3ncnc(N)c23)cc(OC)c1OC [Compound 7l, 1-isopropyl-3-(3,4,5-trimethoxyphenyl)-1H-pyrazolo[3,4-d]pyrimidin-4-amine]",–,–,–,–,–,inhibition at 3 µM (PfCDPK1): 85%; IC50 (TgCDPK1; read-out: TgCDPK1 IC50): 0.42 µM; selectivity TgCDPK1 versus CpCDPK1 (in words) (CpCDPK1): equipotent or slightly selective for CpCDPK1; IC50 (CpCDPK1; read-out: CpCDPK1 IC50): 0.093 µM; inhibition at 3 µM (PfCDPK4): 31%
"CC(C)n1nc(-c2ccc3c(c2)OCO3)c2c(N)ncnc21 [Compound 7u, 3-(benzo[d][1,3]dioxol-5-yl)-1-isopropyl-1H-pyrazolo[3,4-d]pyrimidin-4-amine]",0.045 µM,0.422 µM,–,1.1 µM,–,IC50 (CpCDPK1; read-out: IC50 (μM) CpCDPK1): 0.312 µM
"CC(C)c1nc(-c2ccc3ccccc3c2)c2c(N)nccn12 [Compound 8, 3-isopropyl-1-(naphthalen-2-yl)imidazo[1,5-a]pyrazin-8-amine]",0.0048 µM,0.156 µM,0.0078 µM,0.091 µM,–,–
"COc1ccc(-c2nn(C(C)C)c3ncnc(N)c23)cc1OC(C)C [Compound 23, 3-(3-isopropoxy-4-methoxyphenyl)-1-isopropyl-1H-pyrazolo[3,4-d]pyrimidin-4-amine]",> 3 µM,–,> 3 µM,–,–,–
"COc1ccc2[nH]c(-c3nn(C(C)C)c4ncnc(N)c34)cc2c1 [Compound 27, 1-isopropyl-3-(5-methoxy-1H-indol-2-yl)-1H-pyrazolo[3,4-d]pyrimidin-4-amine]",0.0569 µM,0.879 µM,0.623 µM,> 3 µM,–,–
"Nc1ncnc2c1c(Cc1cccc3ccccc13)nn2Cc1c[nH]cn1 [Compound 31, 1-((1H-imidazol-4-yl)methyl)-3-(naphthalen-1-ylmethyl)-1H-pyrazolo[3,4-d]pyrimidin-4-amine]",0.117 µM,–,0.0936 µM,–,–,–
"Nc1ncnc2c1c(-c1ccc(Cl)cc1)nn2CC1CCNCC1 [Compound 45, 3-(4-chlorophenyl)-1-(piperidin-4-ylmethyl)-1H-pyrazolo[3,4-d]pyrimidin-4-amine]",–,0.0565 µM,–,0.35 µM,62 µM,–
"CC(C)(C)n1nc(-c2ccc(NC(=O)CCl)cc2)c2c(N)ncnc21 [Compound 58, N-(4-(4-amino-1-tert-butyl-1H-pyrazolo[3,4-d]pyrimidin-3-yl)phenyl)-2-chloroacetamide]",0.136 µM,0.214 µM,0.588 µM,2.43 µM,–,–
"CC(C)C(=O)Nc1ccc(-c2nn(C(C)(C)C)c3ncnc(N)c23)cc1 [Compound 59, N-(4-(4-amino-1-tert-butyl-1H-pyrazolo[3,4-d]pyrimidin-3-yl)phenyl)isobutyramide]",0.0997 µM,0.111 µM,0.832 µM,0.459 µM,–,–
"CC(C)(C)C(=O)Nc1ccc(-c2nn(C(C)(C)C)c3ncnc(N)c23)cc1 [Compound 60, N-(4-(4-amino-1-tert-butyl-1H-pyrazolo[3,4-d]pyrimidin-3-yl)phenyl)pivalamide]",0.0666 µM,0.0664 µM,0.929 µM,0.326 µM,–,–
"CCCC(=O)Nc1ccc(-c2nn(C(C)(C)C)c3ncnc(N)c23)cc1 [Compound 61, N-(4-(4-amino-1-tert-butyl-1H-pyrazolo[3,4-d]pyrimidin-3-yl)phenyl)butyramide]",0.0684 µM,0.0714 µM,0.927 µM,0.515 µM,–,–
"CC(C)CC(=O)Nc1ccc(-c2nn(C(C)(C)C)c3ncnc(N)c23)cc1 [Compound 62, N-(4-(4-amino-1-tert-butyl-1H-pyrazol[3,4-d]pyrimidin-3-yl)phenyl)-3-methylbutanamide]",0.0409 µM,0.0377 µM,0.692 µM,0.14 µM,–,–
"CC(C)(C)n1nc(-c2ccc(NC(=O)C3CCCC3)cc2)c2c(N)ncnc21 [Compound 63, N-(4-(4-amino-1-tert-butyl-1H-pyrazolo[3,4-d]pyrimidin-3-yl)phenyl)cyclopentanecarboxamide]",0.0462 µM,0.0118 µM,0.417 µM,0.136 µM,–,–
"CC(C)(C)n1nc(-c2ccc(NC(=O)C3CCCCC3)cc2)c2c(N)ncnc21 [Compound 64, N-(4-(4-amino-1-tert-butyl-1H-pyrazolo[3,4-d]pyrimidin-3-yl)phenyl)cyclohexanecarboxamide]",0.143 µM,0.128 µM,0.928 µM,1.08 µM,–,–
"CC(C)(C)n1nc(-c2ccc(NC(=O)c3ccccc3)cc2)c2c(N)ncnc21 [Compound 65, N-(4-(4-amino-1-tert-butyl-1H-pyrazolo[3,4-d]pyrimidin-3-yl)phenyl)benzamide]",0.171 µM,0.101 µM,1.16 µM,2.85 µM,–,–
"CC(C)(C)n1nc(-c2ccc(NC(=O)Cc3ccccc3)cc2)c2c(N)ncnc21 [Compound 66, N-(4-(4-amino-1-tert-butyl-1H-pyrazolo[3,4-d]pyrimidin-3-yl)phenyl)-2-phenylacetamide]",0.178 µM,0.287 µM,2.02 µM,2.18 µM,–,–

SMILES,IC50 (TgCDPK1; read-out: IC50 (μM) TgCDPK1),EC50 (PfCDPK1),IC50 (CpCDPK1; [4]),EC50 (PfCDPK4),solubility ([1]; buffer),other results
"CCC(=O)Nc1ccc(-c2nn(C(C)(C)C)c3ncnc(N)c23)cc1 [Compound 67, N-(4-(4-amino-1-tert-butyl-1H-pyrazolo[3,4-d]pyrimidin-3-yl)phenyl)propionamide]",0.196 µM,0.325 µM,0.822 µM,1.99 µM,–,–
"Cn1ccc2cc(-c3nc(C(C)(C)C)n4ccnc(N)c34)ccc21 [Compound 70, 3-tert-butyl-1-(1-methyl-1H-indol-5-yl)imidazo[1,5-a]pyrazin-8-amine]",–,0.0538 µM,–,0.0834 µM,5 µM,"Cell Toxicity HL60, % at 10 μM [2]: 40% at 10 μM; Cell Toxicity CRL8155, % at 10 μM [3]: <30% at 10 μM"
"COc1ccc2cc(-c3nc(C(C)(C)C)n4ccnc(N)c34)ccc2c1 [Compound 71, 3-tert-butyl-1-(6-methoxynaphthalen-2-yl)imidazo[1,5-a]pyrazin-8-amine]",–,0.0676 µM,–,0.0652 µM,9 µM,"Cell Toxicity HL60, % at 10 μM [2]: <30% at 10 μM; Cell Toxicity CRL8155, % at 10 μM [3]: <30% at 10 μM"
Cc1cccc2[nH]c(-c3nc(C(C)(C)C)n4ccnc(N)c34)cc12 [Compound 83],–,1.08 µM,–,0.371 µM,36 µM,"Cell Toxicity HL60, % at 10 μM [2]: 37% at 10 μM; Cell Toxicity HL60, % at 30 μM [2]: 38% at 30 μM; Cell Toxicity CRL8155, % at 10 μM [3]: <30% at 10 μM; Cell Toxicity CRL8155, % at 30 μM [3]: 46% at 30 μM"
Cc1cc(-c2nn(CC3CCNCC3)c3ncnc(N)c23)ccc1-c1ccccc1 [Compound 118],–,0.511 µM,–,0.512 µM,40 µM,–
Nc1ncnc2c1c(-c1ccc3ncccc3c1)nn2CC1CCNCC1 [Compound 125],–,1.09 µM,–,0.113 µM,54 µM,–
COc1ccc(-c2nn(C(C)(C)C)c3ncnc(N)c23)cc1C [Compound 132],–,> 3 µM,–,1.49 µM,3.8 µM,–
Cc1cccc(-c2nn(C(C)(C)C)c3ncnc(N)c23)c1 [Compound 134],–,–,–,–,19.3 µM,–
COc1ccc2cc(-c3nn(C(C)(C)C)c4ncnc(N)c34)ccc2c1 [Compound 135],–,0.668 µM,–,0.137 µM,3 µM,–
CCOc1ccc2cc(-c3nn(C(C)(C)C)c4ncnc(N)c34)ccc2c1 [Compound 137],–,2.43 µM,–,0.942 µM,1 µM,–
CCOc1ccc2cc(-c3nn(C4CCNCC4)c4ncnc(N)c34)ccc2c1 [Compound 138],–,–,–,–,51 µM,–
Cn1ccc2cc(-c3nn(C(C)(C)C)c4ncnc(N)c34)ccc21 [Compound 139],–,1.15 µM,–,0.566 µM,0.69 µM,–
Cn1ncc2cc(-c3nn(C(C)(C)C)c4ncnc(N)c34)ccc21 [Compound 142],–,0.294 µM,–,0.0947 µM,5.2 µM,–
CC(C)(C)n1nc(-c2ccc3ncccc3c2)c2c(N)ncnc21 [Compound 143],–,–,–,–,17 µM,–
COc1ccc(-c2nn(CC3CCNCC3)c3ncnc(N)c23)cc1C [Compound 144],–,–,–,–,60 µM,–
CC(C)(C)n1nc(-c2ccc(Cl)cc2)c2c(N)ncnc21 [Compound 146],–,–,–,–,–,solubility [1]: 9 µM
CCOc1ccc2cc(-c3nn(C4CCN(C)CC4)c4ncnc(N)c34)ccc2c1 [Compound 148],–,–,–,0.039 µM,56 µM,"Cell Toxicity HL60, % at 10 μM [2]: <30% at 10 μM; Cell Toxicity HL60, % at 30 μM [2]: 49% at 30 μM;; Cell Toxicity CRL8155, % at 30 μM [3]: <30% at 30 μM"
CCOc1ccc2cc(-c3nn(C4CCN(CC)CC4)c4ncnc(N)c34)ccc2c1 [Compound 149],–,–,–,0.0816 µM,75 µM,"Cell Toxicity HL60, % at 30 μM [2]: <30% at 30 μM; Cell Toxicity CRL8155, % at 10 μM [3]: <30% at 10 μM; Cell Toxicity CRL8155, % at 30 μM [3]: <30% at 30 μM"
